Results from US9359352B2, “Substituted benzimidazoles as PI3 kinase inhibitors” (Intellikine LLC, priority 2010, dated 2016).

How the values were obtained:
Type in all cases: biochemical
[1] = biological target: T1, PI3K α (Homo sapiens, UniProt P42336); assay: PI 3-Kinase HTRF inhibition assay, PI3K α; settings: in vitro; read-out: PI3K α IC50
T1 construct: purchased Upstate
Procedure: (§1) Commercial kits or systems for assaying PI3-K activities are available. The commercially available kits or systems can be used to screen for inhibitors and/or agonists of PI3-Ks including but not limited to PI 3-Kinase α, β, δ, and γ. An exemplary system is PI 3-Kinase (human) HTRF™ Assay from Upstate. […] Briefly, the assay is a time resolved FRET assay that indirectly measures PIP3 product formed by the activity of a PI3-K. The kinase reaction is performed in a microtitre plate (e.g., a 384 well microtitre plate). The total reaction volume is approximately 20 ul per well. In the first step, each well receives 2 ul of test compound in 20% dimethylsulphoxide resulting in a 2% DMSO final concentration. Next, approximately 14.5 ul of a kinase/PIP2 mixture (diluted in 1× reaction buffer) is added per well for a final concentration of 0.25-0.3 ug/ml kinase and 10 μM PIP2. The plate is scaled and incubated for 15 minutes at room temperature. To start the reaction, 3.5 ul of ATP (diluted in 1× reaction buffer) is added per well for a final concentration of 10 μM ATP. The plate is sealed and incubated for 1 hour at room temperature. The reaction is stopped by adding 5 ul of Stop Solution per well and then 5 ul of Detection Mix is added per well. The plate is sealed, incubated for 1 hour at room temperature, and then read on an appropriate plate reader. Data is analyzed and IC50s are generated using GraphPad Prism 5. For PI3K α, β, δ, and γ, the nM concentration of inhibitor to reach IC50 is provided. […] Similar assays, and others known in the art, can be used to measure the percent inhibition of other kinases, including but not limited to PI3K class II kinases, phosphoinositide 4 kinases (PI4K), and phosphoinositide 5 kinases (PI5K).

[2] = biological target: T2, PI3K γ (Homo sapiens, UniProt P48736); assay: PI 3-Kinase HTRF inhibition assay, PI3K γ; settings: in vitro
T2 construct: purchased Upstate
T2 sequence (P48736 whole entry): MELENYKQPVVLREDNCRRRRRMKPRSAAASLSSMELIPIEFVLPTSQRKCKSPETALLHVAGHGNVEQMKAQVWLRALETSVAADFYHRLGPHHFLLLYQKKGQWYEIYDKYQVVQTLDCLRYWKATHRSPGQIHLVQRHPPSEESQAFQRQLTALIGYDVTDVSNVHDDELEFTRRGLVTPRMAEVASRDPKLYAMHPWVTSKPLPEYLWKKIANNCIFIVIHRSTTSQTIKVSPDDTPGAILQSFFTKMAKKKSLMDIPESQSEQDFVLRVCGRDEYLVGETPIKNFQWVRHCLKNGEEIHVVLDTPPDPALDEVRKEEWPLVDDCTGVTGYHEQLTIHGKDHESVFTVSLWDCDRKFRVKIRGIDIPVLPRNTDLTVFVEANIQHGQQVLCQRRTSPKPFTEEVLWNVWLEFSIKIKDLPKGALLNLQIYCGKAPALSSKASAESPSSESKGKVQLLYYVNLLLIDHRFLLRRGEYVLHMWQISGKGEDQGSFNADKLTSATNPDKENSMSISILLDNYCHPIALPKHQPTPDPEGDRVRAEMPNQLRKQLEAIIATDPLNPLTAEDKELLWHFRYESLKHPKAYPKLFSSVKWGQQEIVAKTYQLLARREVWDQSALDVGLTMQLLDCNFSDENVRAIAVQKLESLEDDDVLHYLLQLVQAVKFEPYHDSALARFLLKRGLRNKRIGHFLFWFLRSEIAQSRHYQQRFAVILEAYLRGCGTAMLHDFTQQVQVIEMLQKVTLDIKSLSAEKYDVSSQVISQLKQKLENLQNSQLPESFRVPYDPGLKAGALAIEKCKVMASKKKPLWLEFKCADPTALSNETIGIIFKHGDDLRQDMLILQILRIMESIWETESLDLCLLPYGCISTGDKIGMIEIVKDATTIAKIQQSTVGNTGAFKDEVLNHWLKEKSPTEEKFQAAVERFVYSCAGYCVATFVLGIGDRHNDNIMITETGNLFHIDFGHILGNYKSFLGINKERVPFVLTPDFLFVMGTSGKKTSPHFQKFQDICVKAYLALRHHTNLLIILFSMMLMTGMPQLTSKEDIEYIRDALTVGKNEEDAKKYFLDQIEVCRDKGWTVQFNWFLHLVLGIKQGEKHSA

[3] = biological target: T3, PI3K δ (Homo sapiens, UniProt O00329); assay: PI 3-Kinase HTRF inhibition assay, PI3K δ; settings: in vitro; read-out: PI3K δ IC50
T3 construct: purchased Upstate
T3 sequence (O00329 whole entry): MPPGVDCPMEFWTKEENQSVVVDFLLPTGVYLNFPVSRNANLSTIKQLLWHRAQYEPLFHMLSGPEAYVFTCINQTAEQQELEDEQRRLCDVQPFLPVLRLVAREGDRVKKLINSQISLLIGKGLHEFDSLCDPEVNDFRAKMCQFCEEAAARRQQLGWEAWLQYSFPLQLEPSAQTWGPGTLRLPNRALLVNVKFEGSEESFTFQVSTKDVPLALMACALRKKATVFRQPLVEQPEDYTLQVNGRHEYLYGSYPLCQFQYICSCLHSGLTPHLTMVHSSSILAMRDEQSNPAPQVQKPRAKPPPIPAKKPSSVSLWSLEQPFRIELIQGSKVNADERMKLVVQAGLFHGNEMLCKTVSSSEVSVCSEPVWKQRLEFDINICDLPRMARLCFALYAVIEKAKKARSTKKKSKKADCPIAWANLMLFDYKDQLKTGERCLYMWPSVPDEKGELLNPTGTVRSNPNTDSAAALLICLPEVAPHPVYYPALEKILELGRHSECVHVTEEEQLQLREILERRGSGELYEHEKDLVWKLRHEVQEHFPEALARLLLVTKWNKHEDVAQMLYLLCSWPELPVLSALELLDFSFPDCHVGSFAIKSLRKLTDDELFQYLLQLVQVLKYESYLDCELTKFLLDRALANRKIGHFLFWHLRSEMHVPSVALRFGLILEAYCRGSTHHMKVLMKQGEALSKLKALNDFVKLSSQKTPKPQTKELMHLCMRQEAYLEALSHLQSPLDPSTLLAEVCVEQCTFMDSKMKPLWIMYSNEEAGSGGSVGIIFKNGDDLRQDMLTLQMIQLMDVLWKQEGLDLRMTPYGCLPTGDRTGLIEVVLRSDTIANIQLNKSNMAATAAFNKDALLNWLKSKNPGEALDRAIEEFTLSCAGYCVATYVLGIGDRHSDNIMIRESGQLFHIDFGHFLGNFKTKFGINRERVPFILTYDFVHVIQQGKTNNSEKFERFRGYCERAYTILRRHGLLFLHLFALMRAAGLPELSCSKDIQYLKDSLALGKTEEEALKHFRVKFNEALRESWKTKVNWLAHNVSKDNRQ
T3 sequence (P27986 whole entry partner): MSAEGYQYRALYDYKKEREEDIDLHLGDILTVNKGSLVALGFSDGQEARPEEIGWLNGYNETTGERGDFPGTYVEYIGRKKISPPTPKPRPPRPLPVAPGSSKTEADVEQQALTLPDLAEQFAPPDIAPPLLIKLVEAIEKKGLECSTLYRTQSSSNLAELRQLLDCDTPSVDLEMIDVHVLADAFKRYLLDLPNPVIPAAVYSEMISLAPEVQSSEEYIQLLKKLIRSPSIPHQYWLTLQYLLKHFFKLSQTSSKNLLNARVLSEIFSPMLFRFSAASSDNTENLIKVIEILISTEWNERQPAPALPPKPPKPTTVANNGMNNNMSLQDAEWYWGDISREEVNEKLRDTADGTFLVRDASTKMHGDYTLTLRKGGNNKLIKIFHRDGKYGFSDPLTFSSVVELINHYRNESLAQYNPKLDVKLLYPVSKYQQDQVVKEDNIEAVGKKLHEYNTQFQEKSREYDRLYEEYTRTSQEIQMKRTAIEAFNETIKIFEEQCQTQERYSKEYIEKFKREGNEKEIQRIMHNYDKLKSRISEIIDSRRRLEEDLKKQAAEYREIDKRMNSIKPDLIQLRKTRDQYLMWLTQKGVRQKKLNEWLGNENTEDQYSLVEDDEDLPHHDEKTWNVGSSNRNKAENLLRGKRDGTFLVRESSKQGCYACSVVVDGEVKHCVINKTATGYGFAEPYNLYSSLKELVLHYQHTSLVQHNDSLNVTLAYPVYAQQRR
Procedure: as §1

[4] = biological target: T4, PI3K β (Homo sapiens, UniProt P42338); assay: PI 3-Kinase HTRF inhibition assay, PI3K β; settings: in vitro
T4 construct: purchased Upstate
T4 sequence (P42338 whole entry): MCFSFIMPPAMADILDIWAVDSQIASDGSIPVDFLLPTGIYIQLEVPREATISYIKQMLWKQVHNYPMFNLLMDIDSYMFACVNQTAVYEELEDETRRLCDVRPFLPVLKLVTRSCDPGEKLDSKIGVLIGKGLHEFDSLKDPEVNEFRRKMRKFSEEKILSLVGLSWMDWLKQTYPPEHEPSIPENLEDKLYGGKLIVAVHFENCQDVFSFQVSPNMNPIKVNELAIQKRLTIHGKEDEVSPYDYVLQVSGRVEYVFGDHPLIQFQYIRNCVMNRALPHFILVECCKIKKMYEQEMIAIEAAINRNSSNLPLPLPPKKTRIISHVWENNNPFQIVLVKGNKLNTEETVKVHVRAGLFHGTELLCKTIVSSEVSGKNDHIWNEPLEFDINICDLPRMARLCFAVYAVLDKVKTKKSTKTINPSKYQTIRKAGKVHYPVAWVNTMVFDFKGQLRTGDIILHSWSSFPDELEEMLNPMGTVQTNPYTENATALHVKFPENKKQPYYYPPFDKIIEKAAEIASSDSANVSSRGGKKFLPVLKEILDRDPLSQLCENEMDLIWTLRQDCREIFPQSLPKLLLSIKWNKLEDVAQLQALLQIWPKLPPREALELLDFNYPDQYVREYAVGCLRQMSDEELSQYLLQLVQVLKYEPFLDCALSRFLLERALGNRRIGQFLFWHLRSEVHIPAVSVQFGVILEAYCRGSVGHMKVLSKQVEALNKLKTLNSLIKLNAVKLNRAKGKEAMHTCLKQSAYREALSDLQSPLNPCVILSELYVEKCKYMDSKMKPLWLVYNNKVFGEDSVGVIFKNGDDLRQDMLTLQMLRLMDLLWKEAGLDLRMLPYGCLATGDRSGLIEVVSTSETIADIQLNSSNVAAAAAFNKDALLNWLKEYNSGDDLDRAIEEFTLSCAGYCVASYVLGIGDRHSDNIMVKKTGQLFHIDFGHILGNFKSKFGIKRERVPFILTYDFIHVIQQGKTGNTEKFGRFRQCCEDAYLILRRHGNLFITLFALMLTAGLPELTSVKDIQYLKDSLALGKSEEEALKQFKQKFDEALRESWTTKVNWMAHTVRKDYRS
T4 sequence (P27986 whole entry partner): as the sequence (P27986 whole entry partner) above
Procedure: as §1

T1 sequence (P42336 whole entry): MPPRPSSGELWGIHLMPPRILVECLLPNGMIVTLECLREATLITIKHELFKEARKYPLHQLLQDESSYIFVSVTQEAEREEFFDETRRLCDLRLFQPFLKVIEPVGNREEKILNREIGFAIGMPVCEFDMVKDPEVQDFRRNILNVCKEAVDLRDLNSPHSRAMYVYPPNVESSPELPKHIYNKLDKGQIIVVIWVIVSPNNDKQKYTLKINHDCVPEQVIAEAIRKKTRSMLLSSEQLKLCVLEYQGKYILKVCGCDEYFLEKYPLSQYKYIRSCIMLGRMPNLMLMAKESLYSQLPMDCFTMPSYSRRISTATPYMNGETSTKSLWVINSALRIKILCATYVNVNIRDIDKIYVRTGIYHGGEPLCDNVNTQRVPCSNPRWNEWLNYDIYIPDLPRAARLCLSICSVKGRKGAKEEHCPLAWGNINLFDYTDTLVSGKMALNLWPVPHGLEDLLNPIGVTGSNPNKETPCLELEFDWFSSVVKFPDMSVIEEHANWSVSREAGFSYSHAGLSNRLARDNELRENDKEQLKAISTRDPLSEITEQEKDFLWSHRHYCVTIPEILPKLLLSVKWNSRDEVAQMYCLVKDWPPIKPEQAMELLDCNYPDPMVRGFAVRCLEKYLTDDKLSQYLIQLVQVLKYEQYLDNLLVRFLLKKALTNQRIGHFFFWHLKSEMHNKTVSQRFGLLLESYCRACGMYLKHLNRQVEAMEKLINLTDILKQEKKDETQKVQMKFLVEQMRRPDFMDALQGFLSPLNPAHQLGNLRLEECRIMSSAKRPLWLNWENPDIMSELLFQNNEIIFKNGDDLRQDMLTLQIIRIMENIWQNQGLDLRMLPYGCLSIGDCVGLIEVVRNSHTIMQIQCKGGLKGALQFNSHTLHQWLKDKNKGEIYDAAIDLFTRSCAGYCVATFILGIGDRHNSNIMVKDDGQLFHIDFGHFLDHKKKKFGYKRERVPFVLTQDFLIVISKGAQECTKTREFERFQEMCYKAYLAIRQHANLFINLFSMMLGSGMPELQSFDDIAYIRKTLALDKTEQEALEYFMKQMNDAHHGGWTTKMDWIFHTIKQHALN
T1 sequence (P27986 whole entry partner): as the sequence (P27986 whole entry partner) above

Structure (SMILES): CC1(C)CN(C2CN(c3cnc4ccc(-c5ccc6oc(N)nc6c5)nc4n3)C2)CCN1 [Compound 52]
- IC50 [1]: < 0.1 µM
- IC50 [2]: < 10 µM
- IC50 [3]: < 1 µM
- IC50 [4]: < 10 µM

Structure (SMILES): CCOC(=O)N1CCN(c2cnc3ccc(-c4ccc5oc(N)nc5c4)nc3c2)CC1 [Compound 36]
- IC50 [1]: < 0.1 µM
- IC50 [2]: < 0.1 µM
- IC50 [3]: > 10 µM
- IC50 [4]: < 10 µM

Structure (SMILES): Nc1nc2cc(-c3ccc4ncc(N5CC(N6CCOCC6)C5)nc4n3)ccc2o1 [Compound 5]
- IC50 [1]: < 0.1 µM
- IC50 [2]: < 10 µM
- IC50 [3]: < 10 µM
- IC50 [4]: > 10 µM

Structure (SMILES): C[C@H]1CN(c2cnc3ccc(-c4ccc5oc(N)nc5c4)nc3n2)CCN1 [Compound 1]
- IC50 [1]: < 1 µM
- IC50 [2]: < 10 µM
- IC50 [3]: < 10 µM
- IC50 [4]: < 0.1 µM

Structure (SMILES): Nc1nc2cc(-c3ccc4ncc(N5CC(N6CCN(CCO)CC6)C5)nc4n3)ccc2o1 [Compound 46]
- IC50 [1]: < 0.1 µM
- IC50 [2]: < 10 µM
- IC50 [3]: < 10 µM
- IC50 [4]: < 10 µM

Structure (SMILES): CN1CCN(C2CN(c3cnc4ccc(-c5ccc6oc(N)nc6c5)nc4n3)C2)CC1 [Compound 71]
- IC50 [1]: < 0.1 µM
- IC50 [2]: > 10 µM
- IC50 [3]: < 1 µM
- IC50 [4]: < 10 µM

Structure (SMILES): Nc1nc2cc(-c3cnc4ccc(N5CCOCC5)nc4c3)ccc2o1 [Compound 73, 5-(6-morpholino-1,5-naphthyridin-3-yl)benzo[d]oxazol-2-amine]
- IC50 [1]: < 10 µM
- IC50 [2]: < 10 µM
- IC50 [3]: > 10 µM
- IC50 [4]: > 10 µM

Structure (SMILES): CCN1CCN(C2CN(c3cnc4ccc(-c5ccc6oc(N)nc6c5)nc4c3)C2)CC1 [Compound 75]
- IC50 [1]: < 0.1 µM
- IC50 [2]: < 10 µM
- IC50 [3]: < 1 µM
- IC50 [4]: < 1 µM

Structure (SMILES): Nc1nc2cc(-c3ccc4ncc(N5CC(N6CCN(CCO)CC6)C5)cc4n3)ccc2o1 [Compound 65]
- IC50 [1]: < 0.1 µM
- IC50 [2]: < 1 µM
- IC50 [3]: < 1 µM
- IC50 [4]: < 10 µM

Structure (SMILES): C[C@H]1CN(c2cnc3ccc(-c4ccc5oc(N)nc5c4)nc3c2)CCN1 [Compound 47]
- IC50 [1]: < 0.1 µM
- IC50 [2]: < 1 µM
- IC50 [3]: < 10 µM
- IC50 [4]: < 0.1 µM

Structure (SMILES): Nc1nc2cc(-c3ccc4ncc(N5C6CCC5COC6)cc4n3)ccc2o1 [Compound 23]
- IC50 [1]: < 0.1 µM
- IC50 [2]: < 0.1 µM
- IC50 [3]: > 10 µM
- IC50 [4]: < 10 µM

Structure (SMILES): C[C@H]1CN(C2CN(c3cnc4ccc(-c5ccc6oc(N)nc6c5)nc4c3)C2)CCN1C [Compound 55]
- IC50 [1]: < 0.1 µM
- IC50 [2]: < 10 µM
- IC50 [3]: < 1 µM
- IC50 [4]: < 10 µM

Structure (SMILES): CC(C)(N)C(=O)N1CCN(c2cnc3ccc(-c4ccc5oc(N)nc5c4)nc3n2)CC1 [Compound 40]
- IC50 [1]: < 0.1 µM
- IC50 [2]: < 10 µM
- IC50 [3]: < 10 µM
- IC50 [4]: < 10 µM

Structure (SMILES): Nc1nc2cc(-c3ccc4ncc(N5CC6CCC(C5)O6)nc4n3)ccc2o1 [Compound 28]
- IC50 [1]: < 0.1 µM
- IC50 [2]: < 1 µM
- IC50 [3]: > 10 µM
- IC50 [4]: > 10 µM

Structure (SMILES): Nc1nc2cc(-c3ccc4ncc(N5CC(N6CC7CCC(C6)O7)C5)nc4n3)ccc2o1 [Compound 20]
- IC50 [1]: < 1 µM
- IC50 [2]: < 10 µM
- IC50 [3]: > 10 µM
- IC50 [4]: > 10 µM

Structure (SMILES): C[C@H]1CN(C2CN(c3cnc4ccc(-c5ccc6oc(N)nc6c5)nc4n3)C2)CCN1 [Compound 10]
- IC50 [1]: < 0.1 µM
- IC50 [2]: < 10 µM
- IC50 [3]: < 10 µM
- IC50 [4]: > 10 µM

Structure (SMILES): CC1(C)CN(C2CN(c3cnc4ccc(-c5ccc6oc(N)nc6c5)nc4c3)C2)CCN1 [Compound 58]
- IC50 [1]: < 0.1 µM
- IC50 [2]: < 1 µM
- IC50 [3]: < 1 µM
- IC50 [4]: < 10 µM

Structure (SMILES): CC(C)N1CCN(c2cnc3ccc(-c4ccc5oc(N)nc5c4)nc3c2)CC1 [Compound 44]
- IC50 [1]: < 0.1 µM
- IC50 [2]: < 1 µM
- IC50 [3]: < 1 µM
- IC50 [4]: < 1 µM

Structure (SMILES): CC1(C)CN(C2CN(c3cnc4ccc(-c5ccc6oc(N)nc6c5)nc4n3)C2)CCO1 [Compound 17]
- IC50 [1]: < 1 µM
- IC50 [3]: > 10 µM
- IC50 [4]: > 10 µM

Structure (SMILES): CC(C)N1CCN(C2CN(c3cnc4ccc(-c5ccc6oc(N)nc6c5)nc4c3)C2)CC1 [Compound 72, 5-(7-(3-(4-isopropylpiperazin-1-yl)azetidin-1-yl)-1,5-naphthyridin-2-yl)benzo[d]oxazol-2-amine]
- IC50 [1]: < 0.1 µM
- IC50 [3]: < 1 µM
- IC50 [4]: < 1 µM

Structure (SMILES): Nc1nc2cc(-c3ccc4ncc(N5CCN(C(=O)C6(N)CC6)CC5)nc4n3)ccc2o1 [Compound 41]
- IC50 [1]: < 0.1 µM
- IC50 [2]: < 0.1 µM
